Test systems include HCT-15 colon; MALME-3M melanoma; MCF7 breast; NCI-H522 lung; NCI/ADR-RES ovarian; OVCAR-3 ovarian; OVCAR-4 ovarian; RXF 393 renal; SK-MEL-28 melanoma; SR leukemia; UO-31 renal.
What all share (assay): NCI anticancer screen, dose series, 48 h

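Assay format: 96-well plates, 48-hour exposure. TGI is the concentration that stops growth completely.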 Bounds are passed on as bounds.

Turning to `CN=C(Nn1cnnc1)OC`, the TGI in the assay on HCT-15 colon, with MALME-3M melanoma, with MCF7 breast, with NCI-H522 lung, in the assay with NCI/ADR-RES ovarian and with OVCAR-3 ovarian was greater than 100 µM each time. Besides, the TGI with OVCAR-4 ovarian, with RXF 393 renal, in the assay on SK-MEL-28 melanoma, in the assay on SR leukemia and with UO-31 renal was greater than 100 µM throughout.
As to `CC(=O)N(CN1C(=O)CCC1C(=O)O)c1ccccc1` (stereo not given), the TGI with HCT-15 colon, in the assay with MALME-3M melanoma, in the assay on MCF7 breast, with NCI-H522 lung, in the assay on NCI/ADR-RES ovarian and in the assay on OVCAR-3 ovarian was greater than 100 µM in each case. Besides, the TGI with OVCAR-4 ovarian, with RXF 393 renal, in the assay with SK-MEL-28 melanoma, with SR leukemia and in the assay on UO-31 renal was greater than 100 µM in each case.
Regarding `O=C1/C(=C/c2ccccc2)CCc2ccc(Cl)nc21`, the TGI in the assay on HCT-15 colon was 11.4 µM; in the assay on MALME-3M melanoma, 27.2 µM; with MCF7 breast, 13.2 µM; with NCI-H522 lung it was 10.4 µM; in the assay with NCI/ADR-RES ovarian, greater than 63.7 µM; in the assay on OVCAR-3 ovarian, 46.9 µM. Moreover, the TGI in the assay on OVCAR-4 ovarian is greater than 83.5 µM; in the assay on RXF 393 renal, 24.8 µM; in the assay with SK-MEL-28 melanoma it was 39.6 µM; in the assay on SR leukemia, 9.01 µM; with UO-31 renal, 20.2 µM.
As for `C/C(=C/CO[Si](C)(C)C(C)(C)C)C(=O)N(C)c1ccccc1I`, the TGI in the assay with HCT-15 colon was found to be 34.5 µM; in the assay on MALME-3M melanoma it was 28.3 µM; in the assay on MCF7 breast it was 30.6 µM; with NCI-H522 lung, 31.5 µM; with NCI/ADR-RES ovarian it was 37.1 µM; in the assay on OVCAR-3 ovarian it was 31.3 µM. In addition, the TGI with OVCAR-4 ovarian came to 31.2 µM; in the assay on RXF 393 renal it was 31.9 µM; with SK-MEL-28 melanoma, 35.7 µM; in the assay on SR leukemia, 51.7 µM; in the assay on UO-31 renal it was 28 µM.
For the compound `CN(CCc1ccc(Cl)c(Cl)c1)[C@H]1CCCC[C@H]1N1CCCC1`, the TGI in the assay on HCT-15 colon, in the assay with MALME-3M melanoma, in the assay on MCF7 breast, in the assay on NCI-H522 lung, in the assay with NCI/ADR-RES ovarian and with OVCAR-3 ovarian was greater than 100 µM in each case. In addition, the TGI with OVCAR-4 ovarian, in the assay with RXF 393 renal, with SK-MEL-28 melanoma, with SR leukemia and in the assay on UO-31 renal was greater than 100 µM throughout.
`COC(=O)C1=C(O)C(C(=O)OC)[C@@]2(O)[C@@H](C(=O)OC)C(c3ccc(OC(=O)/C(=C/c4ccc(Cl)cc4)c4ccc(Cl)cc4)cc3)C[C@@H]1[C@@H]2C(=O)OC` (stereo not given in full): the TGI in the assay on HCT-15 colon, with MALME-3M melanoma, with MCF7 breast, in the assay on NCI-H522 lung, in the assay with NCI/ADR-RES ovarian and in the assay with OVCAR-3 ovarian was greater than 100 µM each time. Further, the TGI is greater than 100 µM in the assay on OVCAR-4 ovarian; greater than 100 µM with RXF 393 renal; greater than 100 µM with SK-MEL-28 melanoma; greater than 100 µM in the assay with SR leukemia; 34.1 µM with UO-31 renal.
Turning to `CCOC(=O)c1nc2c3c(ncn2n1)Oc1c(c(-c2ccccc2)nn1-c1ccccc1)C3c1ccc(Cl)cc1` (stereo not given), the TGI in the assay with HCT-15 colon, in the assay on MALME-3M melanoma, with MCF7 breast, in the assay with NCI-H522 lung, in the assay on NCI/ADR-RES ovarian and in the assay on OVCAR-3 ovarian was greater than 100 µM in each case. Besides, the TGI in the assay on OVCAR-4 ovarian, with RXF 393 renal, in the assay on SK-MEL-28 melanoma, in the assay with SR leukemia and in the assay with UO-31 renal was greater than 100 µM each time.
Take `N#CCCC1C(C#N)C2CC1C1C3C=CC(C3)C21` (stereo not given): the TGI with HCT-15 colon, in the assay on MALME-3M melanoma, in the assay with MCF7 breast, with NCI-H522 lung, with NCI/ADR-RES ovarian and in the assay with OVCAR-3 ovarian was greater than 100 µM throughout. Also, the TGI in the assay on OVCAR-4 ovarian, with RXF 393 renal, with SK-MEL-28 melanoma, with SR leukemia and with UO-31 renal was greater than 100 µM in each case.
As to `Cc1cc2ccccc2n1CC(=O)NCC(C)C`, the TGI with HCT-15 colon, in the assay with MALME-3M melanoma, in the assay on MCF7 breast, in the assay with NCI-H522 lung, with NCI/ADR-RES ovarian and in the assay on OVCAR-3 ovarian was greater than 100 µM throughout. The TGI in the assay on OVCAR-4 ovarian, in the assay on RXF 393 renal, in the assay with SK-MEL-28 melanoma, in the assay with SR leukemia and in the assay with UO-31 renal was greater than 100 µM each time.
On to `COC(=O)[C@H](C)N1C(=O)N[C@@H](C(C)C)C1=O`, for which the TGI in the assay with HCT-15 colon, in the assay on MALME-3M melanoma, in the assay with MCF7 breast, in the assay with NCI-H522 lung, in the assay on NCI/ADR-RES ovarian and in the assay with OVCAR-3 ovarian was greater than 100 µM each time. Also, the TGI in the assay with OVCAR-4 ovarian, in the assay with RXF 393 renal, with SK-MEL-28 melanoma, in the assay on SR leukemia and in the assay on UO-31 renal was greater than 100 µM throughout.
With `C/C(O)=C(\C=N\C(N)=S)C(=O)Nc1ccccc1C`, the TGI with HCT-15 colon, in the assay on MCF7 breast, in the assay with NCI-H522 lung, with NCI/ADR-RES ovarian, in the assay with OVCAR-3 ovarian and in the assay with OVCAR-4 ovarian was greater than 100 µM in each case. Moreover, the TGI in the assay on RXF 393 renal, with SK-MEL-28 melanoma, in the assay on SR leukemia and in the assay on UO-31 renal was greater than 100 µM each time.
On to `CCCCC[C@@H]1OCO[C@@]2(C)/C=C(C)/C=C/C(=O)O[C@H]([C@@H](C)[C@@H](O)[C@H](C)[C@@]3(O)C[C@@H](O[C@H]4C[C@@H](O)[C@H](O)[C@@H](C)O4)[C@H](C)[C@@H](C)O3)[C@@H](OC)/C=C/C=C(\C)C[C@@H]1[C@@H]2O` (stereo in doubt), for which the TGI was found to be 7.17 µM with HCT-15 colon; 0.308 µM in the assay on MALME-3M melanoma; 3.32 µM in the assay with MCF7 breast; 7.46 µM with NCI-H522 lung; 15.8 µM in the assay with NCI/ADR-RES ovarian; 2.46 µM in the assay on OVCAR-3 ovarian. Moreover, the TGI was 8.38 µM with OVCAR-4 ovarian, 1.19 µM with RXF 393 renal, 1.68 µM in the assay on SK-MEL-28 melanoma and less than 0.005 µM in the assay on SR leukemia.

Source of the values: PubChem BioAssay (NCI).
